These results are taken from patent US10034836B2, “Formulations of guanylate cyclase C agonists and methods of use” (SYNERGY PHARMACEUTICALS, INC., priority 2008, dated 2018).

In one assay the test system is mice treated with TNBS. The assay can be described thus: Stool consistency in TNBS-induced murine model of colitis. The note with it: oral administration (FIG. 13). Format: in vivo. An excerpt: The anal administration of trinitrobenzene sulphonic acid (TNBS) is typically used to produce intestinal blockage, resulting in poor stool consistency.
The next assay deals with BDF1 mice. Description: DSS-induced colitis in BDF-1 mice. The note with it: 5% DSS, 80 mg/kg oral gavage daily (positive control). Format: in vivo. Here is the method: The cGMP pathway mediates the anti-inflammatory effects of cellular molecules such as nitric oxide and heme oxygenase-1. […] The anti-inflammatory effects of the GCC agonist SP-304 were evaluated in a murine model of ulcerative colitis, the DSS-induced colitis model.
Forty eight BDF1 mice were divided into 8 treatment groups (6 mice/group). One group was not exposed to DSS (untreated control) and groups […] were treated with 5% DSS in the drinking water. DSS was refreshed daily. All mice were weighed on day −1, and treated with the test materials beginning on day −1. 4 hrs post dosing on Day 0, DSS was placed in the drinking water of groups 2-8 and DSS remained in the water until the end of the study. The test agents were administered at 9 AM daily until day 7. Animals were treated with a single dose of test agents and the groups were as follows:
All doses were administered by oral gavage using a 0.1 ml dose per 10 g body weight. To avoid cage-to-cage variation, different treatment groups were housed in the same cage and animals were ear punched for identification purposes. Mice were sacrificed on day 7, 4-6 hrs post last dosing. […] All slides were scored in a blinded manner.
Five different sections of the tissue were examined for histopathological scoring and the scores were averaged for each mouse. The histopathology scores in FIG. 17 are expressed as an average of 6 mice.

On to `O=C(O)c1cc(/N=N/c2ccc(S(=O)(=O)Nc3ccccn3)cc2)ccc1O` [Sulfasalazine], for which, in the assay on mice treated with TNBS, the “stool consistency in mice treated with TNBS” value is recorded as “restored normal stool consistency”. In addition, the “severity of inflammation in large intestine (histopathology score)” value with BDF1 mice was “considerably reduced”.
